Laboratory results taken from US8097650B2, “Method of treating a condition associated with phosphorylation of TASK-1” (The Trustees of Columbia University In The City of New York, priority 2005, dated 2012).

Columns and labels:
[1] = test system: murine ventricular myocytes; assay: Arrhythmias induced by PKCε activator peptide in murine ventricular myocytes, rescue by TREK-1 activators; format: cell-based, mouse
Experimental: FIGS. 23A-23D. Activation of TREK-1 can overcome arrhythmias induced by inhibition of TASK-1. Isolated murine ventricular myocytes were studied in current clamp mode and paced at 1 Hz. The cells were studied in regular Tyrode's, pH 7.4. Recordings were begun immediately after rupture and continued for 12-15 min, with the 5.5 min time point illustrated. A PKCε-specific activator peptide (100 nM) was included in the patch pipette, which lead to inhibition of TASK-1 current and repolarization abnormalities (23A and 23B).
FIG. 25. Activation of TREK-1 can overcome arrhythmias induced by inhibition of TASK-1. Isolated murine ventricular myocytes were studied in current clamp mode and paced at 1 Hz. The cells were studied in regular Tyrode's, pH 7.4. Recordings were begun immediately after rupture and continued for 12-15 min. A PKCε-specific activator peptide (100 nM) […] or a scrambled control peptide (100 nM) (25A) was included in the patch pipette. After the activator peptide had induced repolarization abnormalities (25B left panel), a TREK-1 activator, ONO-RS-082 (100 nM) was added to the superfusion.
Isolated murine ventricular myocytes were studied in current clamp mode and paced at 1 Hz. The cells were studied in regular Tyrode's, pH 7.4, and recordings were begun immediately after rupture and continued for 12-15 min, with the 5.5 min timepoint illustrated. As shown in FIGS. 23A and 23B, a PKCε-specific activator peptide (100 nM) was included in the patch pipette which lead to inhibition of TASK-1 current and repolarization abnormalities.

[2] = test system: murine TASK-1 T381A mutant; assay: T381A mutant TASK-1 current in CHO cells; format: cell-based, mouse; conditions: +30 mV, C-PAF 185 nM
Experimental: pCMV-TASK1 (cTBAK) consists of a 1.9 kb sequence of murine TASK-1 inserted in pcDNA3.1 (a kind gift of Dr. Yoshihisa Kurachi, University of Osaka, Japan) and has been previously described (Leonoudakis D et al. (1998) J Neurosci 18: 868-877). pEGFP-C1 and pIRES-EGFP were purchased from Clontech. pTIE (TASK1-IRES-EGFP) was constructed by inserting a 1.9 kb EcoR1 fragment from pCMV-TASK1 into EcoR1 digested pIRES-EGFP. Site-directed mutagenesis was performed on pTIE using the Quik-Change kit (Stratagene) following the manufacturer's instructions. […]
Cells were either co-transfected with pCMV-TASK1 together with pEGFP-C1 (1 μg total, 3:1) or transfected with […] or T381A-pTIE (1 μg). 48 h after the transfection the cells were checked under the microscope for green fluorescence. […]
The myocyte suspension or the coverslip with CHO cells was placed into a perfusion chamber, mounted on the stage of an inverted microscope. […] Membrane potential and current were measured in the whole cell configuration using borosilicate glass pipettes with a tip resistance between […] and filled with a pipette solution containing (mM): aspartic acid, 130; KOH, 146; NaCl, 10; CaCl2, 2; EGTA, 5; HEPES, 10; MGATP, 2; pH 7.2. […] Myocytes treated with the peptides were monitored continuously beginning immediately after rupture to detect the occurrence of any arrhythmias during dialysis of the peptide. […]

Compound | effect on established peptide-induced arrhythmia ([1]; ONO-RS-082 100 nM in superfusion) | rhythm after washout of drug ([1]; ONO-RS-082 removed) | maximal current in the presence of C-PAF [2]
CCCCCc1ccc(C=CC(=O)Nc2cc(Cl)ccc2C(=O)O)cc1 [ONO-RS-082] | promptly reversed the arrhythmia | the arrhythmias recurred | 
CCCCCCCCCCCCCCCCOC[C@H](COP(=O)([O-])OCC[N+](C)(C)C)OC(=O)NC [C-PAF, carbamyl-platelet-activating factor] |  |  | 44.2±7 pA/pF
